From publication PMC3399817 (PLoS ONE, 2012)

Experiments:
Experiment in all cases: KINOMEscan
Format in all cases: binding
GRK4 = target: T1, GRK4 (Homo sapiens, UniProt P32298); settings: GRK4, 1 uM
T1 construct: purchased Ambit KINOMEscan (DiscoverX)
How it was run: (§1)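 Substrate-binding inhibition measured with compound present at 1 μM, single concentration, to pick out affected kinases.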

HIPK3 = target: T2, HIPK3 (Homo sapiens, UniProt Q9H422); settings: HIPK3, 1 uM
T2 construct: purchased Ambit KINOMEscan (DiscoverX)
How it was run: as §1

CSNK2A2 = target: T3, CSNK2A2 (Homo sapiens, UniProt P19784); settings: CSNK2A2, 1 uM
T3 construct: purchased Ambit KINOMEscan (DiscoverX)
How it was run: as §1

FGFR4 = target: T4, FGFR4 (Homo sapiens, UniProt P22455); settings: FGFR4, 1 uM
T4 construct: purchased Ambit KINOMEscan (DiscoverX)
How it was run: as §1

TGFBR2 = target: T5, TGFBR2 (Homo sapiens, UniProt P37173); settings: TGFBR2, 1 uM
T5 construct: purchased Ambit KINOMEscan (DiscoverX)
How it was run: as §1

ULK1 = target: T6, ULK1 (Homo sapiens, UniProt O75385); settings: ULK1, 1 uM
T6 construct: purchased Ambit KINOMEscan (DiscoverX)
How it was run: as §1

PIK3CB = target: T7, PIK3CB (Homo sapiens, UniProt P42338); settings: 1 uM
T7 construct: purchased Ambit KINOMEscan (DiscoverX)
How it was run: as §1

CAMK4 = target: T8, CAMK4 (Homo sapiens, UniProt Q16566); settings: CAMK4, 1 uM
T8 construct: purchased Ambit KINOMEscan (DiscoverX)
How it was run: as §1

MAP4K4 = target: T9, MAP4K4 (Homo sapiens, UniProt O95819); settings: MAP4K4, 1 uM
T9 construct: purchased Ambit KINOMEscan (DiscoverX)
How it was run: as §1

SBK1 = target: T10, SBK1 (Homo sapiens, UniProt Q52WX2); settings: SBK1, 1 uM
T10 construct: purchased Ambit KINOMEscan (DiscoverX)
How it was run: as §1

TSSK1B = target: T11, TSSK1B (Homo sapiens, UniProt Q9BXA7); settings: 1 uM
T11 construct: purchased Ambit KINOMEscan (DiscoverX)
How it was run: as §1

HIPK4 = target: T12, HIPK4 (Homo sapiens, UniProt Q8NE63); settings: HIPK4, 1 uM
T12 construct: purchased Ambit KINOMEscan (DiscoverX)
How it was run: as §1

PAK1 = target: T13, PAK1 (Homo sapiens, UniProt Q13153); settings: PAK1, 1 uM
T13 construct: purchased Ambit KINOMEscan (DiscoverX)
How it was run: as §1

MAK = target: T14, MAK (Homo sapiens, UniProt P20794); settings: 1 uM
T14 construct: purchased Ambit KINOMEscan (DiscoverX)
How it was run: as §1

AMPK-alpha1 = target: T15, AMPK-alpha1 (Homo sapiens, UniProt Q13131); settings: AMPK-alpha1, 1 uM
T15 construct: purchased Ambit KINOMEscan (DiscoverX)
How it was run: as §1

BMPR1B = target: T16, BMPR1B (Homo sapiens, UniProt O00238); settings: 1 uM
T16 construct: purchased Ambit KINOMEscan (DiscoverX)
How it was run: as §1

NEK2 = target: T17, NEK2 (Homo sapiens, UniProt P51955); settings: NEK2, 1 uM
T17 construct: purchased Ambit KINOMEscan (DiscoverX)
How it was run: as §1

TYRO3 = target: T18, TYRO3 (Homo sapiens, UniProt Q06418); settings: TYRO3, 1 uM
T18 construct: purchased Ambit KINOMEscan (DiscoverX)
How it was run: as §1

CDC2L2 = target: T19, CDC2L2 (Homo sapiens, UniProt Q9UQ88); settings: CDC2L2, 1 uM
T19 construct: purchased Ambit KINOMEscan (DiscoverX)
How it was run: as §1

[1] = target: T20, RPS6KA1(Kin.Dom.2-C-terminal) (Homo sapiens, UniProt Q15418); settings: 1 uM
T20 construct: RPS6KA1(Kin.Dom.2-C-terminal); purchased Ambit KINOMEscan (DiscoverX)
How it was run: as §1

CSNK1D = target: T21, CSNK1D (Homo sapiens, UniProt P48730); settings: 1 uM
T21 construct: purchased Ambit KINOMEscan (DiscoverX)
How it was run: as §1

EPHB2 = target: T22, EPHB2 (Homo sapiens, UniProt P29323); settings: EPHB2, 1 uM
T22 construct: purchased Ambit KINOMEscan (DiscoverX)
How it was run: as §1

MRCKB = target: T23, MRCKB (Homo sapiens, UniProt Q9Y5S2); settings: 1 uM
T23 construct: purchased Ambit KINOMEscan (DiscoverX)
How it was run: as §1

DYRK1B = target: T24, DYRK1B (Homo sapiens, UniProt Q9Y463); settings: 1 uM
T24 construct: purchased Ambit KINOMEscan (DiscoverX)
How it was run: as §1

CDKL2 = target: T25, CDKL2 (Homo sapiens, UniProt Q92772); settings: CDKL2, 1 uM
T25 construct: purchased Ambit KINOMEscan (DiscoverX)
How it was run: as §1

FLT3(ITD) = settings: 1 uM
How it was run: as §1

MUSK = target: T26, MUSK (Homo sapiens, UniProt O15146); settings: 1 uM
T26 construct: purchased Ambit KINOMEscan (DiscoverX)
How it was run: as §1

CAMKK2 = target: T27, CAMKK2 (Homo sapiens, UniProt Q96RR4); settings: CAMKK2, 1 uM
T27 construct: purchased Ambit KINOMEscan (DiscoverX)
How it was run: as §1

BTK = target: T28, BTK (Homo sapiens, UniProt Q06187); settings: 1 uM
T28 construct: purchased Ambit KINOMEscan (DiscoverX)
How it was run: as §1

RIOK1 = target: T29, RIOK1 (Homo sapiens, UniProt Q9BRS2); settings: RIOK1, 1 uM
T29 construct: purchased Ambit KINOMEscan (DiscoverX)
How it was run: as §1

PFTAIRE2 = target: T30, PFTAIRE2 (Homo sapiens, UniProt Q96Q40); settings: PFTAIRE2, 1 uM
T30 construct: purchased Ambit KINOMEscan (DiscoverX)
How it was run: as §1

SRPK1 = target: T31, SRPK1 (Homo sapiens, UniProt Q96SB4); settings: SRPK1, 1 uM
T31 construct: purchased Ambit KINOMEscan (DiscoverX)
How it was run: as §1

BRAF(V600E) = target: T32, BRAF(V600E) (Homo sapiens, UniProt P15056, V600E); settings: 1 uM
T32 construct: purchased Ambit KINOMEscan (DiscoverX)
How it was run: as §1

CDKL5 = target: T33, CDKL5 (Homo sapiens, UniProt O76039); settings: CDKL5, 1 uM
T33 construct: purchased Ambit KINOMEscan (DiscoverX)
How it was run: as §1

[2] = target: T34, JAK1(JH1domain-catalytic) (Homo sapiens, UniProt P23458); settings: 1 uM
T34 construct: JAK1(JH1domain-catalytic); purchased Ambit KINOMEscan (DiscoverX)
How it was run: as §1

FER = target: T35, FER (Homo sapiens, UniProt P16591); settings: 1 uM
T35 construct: purchased Ambit KINOMEscan (DiscoverX)
How it was run: as §1

ROCK2 = target: T36, ROCK2 (Homo sapiens, UniProt O75116); settings: for % binding compared to no inhibitor control: ROCK2, 1 uM
T36 construct: purchased Ambit KINOMEscan (DiscoverX)
How it was run: as §1

[3] = target: T37, JAK3(JH1domain-catalytic) (Homo sapiens, UniProt P52333); settings: 1 uM
T37 construct: JAK3(JH1domain-catalytic); purchased Ambit KINOMEscan (DiscoverX)
How it was run: as §1

MARK2 = target: T38, MARK2 (Homo sapiens, UniProt Q7KZI7); settings: MARK2, 1 uM
T38 construct: purchased Ambit KINOMEscan (DiscoverX)
How it was run: as §1

T36 sequence (O75116 whole entry): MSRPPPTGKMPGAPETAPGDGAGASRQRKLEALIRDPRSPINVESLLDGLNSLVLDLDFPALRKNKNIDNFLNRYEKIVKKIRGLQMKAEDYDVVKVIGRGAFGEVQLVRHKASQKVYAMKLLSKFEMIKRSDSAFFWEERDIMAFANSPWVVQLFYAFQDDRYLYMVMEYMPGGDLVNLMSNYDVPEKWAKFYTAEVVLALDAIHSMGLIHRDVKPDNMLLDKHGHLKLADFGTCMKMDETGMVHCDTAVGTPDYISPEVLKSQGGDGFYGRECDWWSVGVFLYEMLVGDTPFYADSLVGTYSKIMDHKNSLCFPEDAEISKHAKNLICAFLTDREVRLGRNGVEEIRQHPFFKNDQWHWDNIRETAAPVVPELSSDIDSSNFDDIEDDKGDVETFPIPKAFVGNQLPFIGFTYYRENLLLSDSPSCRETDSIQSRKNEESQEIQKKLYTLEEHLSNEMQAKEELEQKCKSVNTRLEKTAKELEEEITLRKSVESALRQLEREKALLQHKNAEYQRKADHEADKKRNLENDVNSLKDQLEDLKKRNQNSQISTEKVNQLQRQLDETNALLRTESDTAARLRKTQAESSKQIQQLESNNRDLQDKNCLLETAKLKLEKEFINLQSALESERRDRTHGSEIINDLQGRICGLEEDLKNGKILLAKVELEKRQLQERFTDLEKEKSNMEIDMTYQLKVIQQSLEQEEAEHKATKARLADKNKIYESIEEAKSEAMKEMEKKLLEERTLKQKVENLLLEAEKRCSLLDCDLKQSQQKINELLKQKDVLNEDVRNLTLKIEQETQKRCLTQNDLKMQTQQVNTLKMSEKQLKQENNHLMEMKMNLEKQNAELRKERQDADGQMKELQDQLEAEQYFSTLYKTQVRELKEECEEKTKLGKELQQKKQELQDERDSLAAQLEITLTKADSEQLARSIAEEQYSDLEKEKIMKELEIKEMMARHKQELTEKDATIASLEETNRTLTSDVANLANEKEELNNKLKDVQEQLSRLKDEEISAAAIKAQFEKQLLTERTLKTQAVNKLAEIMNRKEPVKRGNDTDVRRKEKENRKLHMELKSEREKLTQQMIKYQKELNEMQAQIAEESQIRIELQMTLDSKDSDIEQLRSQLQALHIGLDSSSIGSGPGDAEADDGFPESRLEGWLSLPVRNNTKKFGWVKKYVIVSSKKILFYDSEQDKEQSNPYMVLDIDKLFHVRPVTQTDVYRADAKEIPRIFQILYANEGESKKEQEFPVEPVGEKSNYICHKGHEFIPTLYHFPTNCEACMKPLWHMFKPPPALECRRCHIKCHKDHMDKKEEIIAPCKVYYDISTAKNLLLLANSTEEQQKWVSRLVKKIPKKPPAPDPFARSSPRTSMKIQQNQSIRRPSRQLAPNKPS
T18 sequence (Q06418 41-890): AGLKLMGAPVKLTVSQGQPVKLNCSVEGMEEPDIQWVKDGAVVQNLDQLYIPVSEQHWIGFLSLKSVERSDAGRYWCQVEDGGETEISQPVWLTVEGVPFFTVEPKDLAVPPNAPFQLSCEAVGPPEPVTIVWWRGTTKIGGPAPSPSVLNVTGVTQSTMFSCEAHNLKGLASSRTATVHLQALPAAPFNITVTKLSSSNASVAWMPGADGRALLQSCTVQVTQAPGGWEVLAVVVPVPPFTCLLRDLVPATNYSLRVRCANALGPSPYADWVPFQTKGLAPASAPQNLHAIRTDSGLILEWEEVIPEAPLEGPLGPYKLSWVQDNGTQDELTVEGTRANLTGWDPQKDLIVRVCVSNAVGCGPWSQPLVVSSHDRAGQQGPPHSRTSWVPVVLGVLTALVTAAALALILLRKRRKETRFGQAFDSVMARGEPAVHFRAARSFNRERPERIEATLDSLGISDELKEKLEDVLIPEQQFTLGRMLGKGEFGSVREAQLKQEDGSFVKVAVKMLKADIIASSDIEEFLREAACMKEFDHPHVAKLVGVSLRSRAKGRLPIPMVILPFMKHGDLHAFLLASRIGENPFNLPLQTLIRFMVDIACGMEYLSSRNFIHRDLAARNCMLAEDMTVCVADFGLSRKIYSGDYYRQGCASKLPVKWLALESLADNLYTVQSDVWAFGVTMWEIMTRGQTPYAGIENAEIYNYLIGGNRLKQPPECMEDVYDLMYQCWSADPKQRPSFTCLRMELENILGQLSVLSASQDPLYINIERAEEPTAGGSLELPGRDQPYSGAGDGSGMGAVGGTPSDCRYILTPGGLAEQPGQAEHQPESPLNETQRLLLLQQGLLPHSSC
T24 sequence (Q9Y463 whole entry): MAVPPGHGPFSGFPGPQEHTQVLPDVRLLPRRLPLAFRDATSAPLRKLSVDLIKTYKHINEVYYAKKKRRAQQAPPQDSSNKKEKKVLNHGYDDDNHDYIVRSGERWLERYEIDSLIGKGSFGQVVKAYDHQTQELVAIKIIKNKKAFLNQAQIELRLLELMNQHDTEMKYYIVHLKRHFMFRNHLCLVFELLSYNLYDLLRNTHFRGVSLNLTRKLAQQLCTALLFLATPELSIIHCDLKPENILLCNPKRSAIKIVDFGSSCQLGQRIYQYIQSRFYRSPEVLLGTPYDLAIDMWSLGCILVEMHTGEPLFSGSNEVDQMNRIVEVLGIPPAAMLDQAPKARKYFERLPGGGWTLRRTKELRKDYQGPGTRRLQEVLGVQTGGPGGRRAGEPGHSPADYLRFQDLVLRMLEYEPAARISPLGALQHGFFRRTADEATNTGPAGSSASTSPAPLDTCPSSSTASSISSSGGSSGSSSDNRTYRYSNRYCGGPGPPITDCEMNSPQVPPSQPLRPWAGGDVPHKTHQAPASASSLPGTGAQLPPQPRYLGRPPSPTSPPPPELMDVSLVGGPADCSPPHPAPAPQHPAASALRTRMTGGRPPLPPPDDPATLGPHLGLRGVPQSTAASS
T11 sequence (Q9BXA7 whole entry): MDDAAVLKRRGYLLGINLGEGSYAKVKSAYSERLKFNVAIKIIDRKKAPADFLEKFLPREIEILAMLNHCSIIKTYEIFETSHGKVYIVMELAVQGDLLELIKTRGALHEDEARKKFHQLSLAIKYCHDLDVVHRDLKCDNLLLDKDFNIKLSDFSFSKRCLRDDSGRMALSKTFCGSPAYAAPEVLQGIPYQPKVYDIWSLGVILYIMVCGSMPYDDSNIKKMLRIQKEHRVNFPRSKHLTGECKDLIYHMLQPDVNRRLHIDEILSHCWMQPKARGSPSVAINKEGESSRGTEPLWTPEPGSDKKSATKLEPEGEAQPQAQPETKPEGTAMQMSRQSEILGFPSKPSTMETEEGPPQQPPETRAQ
T17 sequence (P51955 whole entry): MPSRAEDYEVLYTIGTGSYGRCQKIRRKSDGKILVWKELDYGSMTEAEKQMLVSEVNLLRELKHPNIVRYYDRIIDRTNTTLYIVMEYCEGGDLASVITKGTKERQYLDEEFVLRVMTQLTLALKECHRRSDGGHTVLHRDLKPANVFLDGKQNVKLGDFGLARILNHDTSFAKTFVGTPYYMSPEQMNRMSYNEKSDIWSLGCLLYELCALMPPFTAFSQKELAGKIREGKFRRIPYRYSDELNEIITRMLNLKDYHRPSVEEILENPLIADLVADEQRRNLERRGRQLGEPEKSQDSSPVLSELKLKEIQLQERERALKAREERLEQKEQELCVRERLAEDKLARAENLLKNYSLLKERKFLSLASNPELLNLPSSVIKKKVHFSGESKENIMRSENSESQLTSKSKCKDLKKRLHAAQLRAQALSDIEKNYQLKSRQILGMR
T29 sequence (Q9BRS2 whole entry): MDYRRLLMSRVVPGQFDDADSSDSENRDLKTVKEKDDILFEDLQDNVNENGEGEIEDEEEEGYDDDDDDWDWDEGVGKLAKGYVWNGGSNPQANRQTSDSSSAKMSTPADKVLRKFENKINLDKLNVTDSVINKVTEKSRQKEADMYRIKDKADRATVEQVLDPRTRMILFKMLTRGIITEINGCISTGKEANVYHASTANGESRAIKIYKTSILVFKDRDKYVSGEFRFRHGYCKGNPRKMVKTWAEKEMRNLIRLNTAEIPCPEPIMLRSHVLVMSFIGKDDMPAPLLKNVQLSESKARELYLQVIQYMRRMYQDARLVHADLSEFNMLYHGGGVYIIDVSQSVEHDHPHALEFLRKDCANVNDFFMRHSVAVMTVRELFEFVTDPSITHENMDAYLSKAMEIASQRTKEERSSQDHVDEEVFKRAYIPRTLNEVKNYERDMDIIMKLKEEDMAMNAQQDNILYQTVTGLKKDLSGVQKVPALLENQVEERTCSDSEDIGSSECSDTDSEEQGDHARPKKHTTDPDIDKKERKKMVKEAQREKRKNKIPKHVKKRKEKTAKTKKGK
T16 sequence (O00238 14-502): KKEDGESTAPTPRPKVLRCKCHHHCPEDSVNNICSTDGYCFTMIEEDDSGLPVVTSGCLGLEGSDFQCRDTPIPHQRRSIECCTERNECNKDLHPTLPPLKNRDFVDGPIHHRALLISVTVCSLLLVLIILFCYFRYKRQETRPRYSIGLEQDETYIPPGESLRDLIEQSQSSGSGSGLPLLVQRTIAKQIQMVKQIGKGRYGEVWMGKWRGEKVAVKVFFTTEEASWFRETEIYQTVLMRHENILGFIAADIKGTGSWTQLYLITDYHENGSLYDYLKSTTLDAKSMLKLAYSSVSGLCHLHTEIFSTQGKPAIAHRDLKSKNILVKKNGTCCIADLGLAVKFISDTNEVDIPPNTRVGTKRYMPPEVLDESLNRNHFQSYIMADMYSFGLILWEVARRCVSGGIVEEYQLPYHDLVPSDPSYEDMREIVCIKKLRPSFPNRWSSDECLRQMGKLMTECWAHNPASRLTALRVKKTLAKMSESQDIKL
T34 sequence (P23458 875-1154 limits assumed): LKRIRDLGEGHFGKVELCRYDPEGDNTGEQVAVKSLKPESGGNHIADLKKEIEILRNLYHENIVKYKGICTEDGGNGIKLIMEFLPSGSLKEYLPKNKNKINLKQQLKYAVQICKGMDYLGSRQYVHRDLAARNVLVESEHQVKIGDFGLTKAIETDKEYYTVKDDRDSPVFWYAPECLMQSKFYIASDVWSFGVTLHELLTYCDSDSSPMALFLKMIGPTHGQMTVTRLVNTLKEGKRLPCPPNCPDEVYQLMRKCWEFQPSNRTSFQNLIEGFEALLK

Row | Compound | % binding compared to no inhibitor control (GRK4) | % binding compared to no inhibitor control (HIPK3) | % binding compared to no inhibitor control (CSNK2A2) | % binding compared to no inhibitor control (FGFR4) | % binding compared to no inhibitor control (TGFBR2) | % binding compared to no inhibitor control (ULK1) | % binding compared to no inhibitor control (PIK3CB) | % binding compared to no inhibitor control (CAMK4) | % binding compared to no inhibitor control (MAP4K4) | % binding compared to no inhibitor control (SBK1) | % binding compared to no inhibitor control (TSSK1B) | % binding compared to no inhibitor control (HIPK4) | % binding compared to no inhibitor control (PAK1) | % binding compared to no inhibitor control (MAK) | % binding compared to no inhibitor control (AMPK-alpha1) | % binding compared to no inhibitor control (BMPR1B) | % binding compared to no inhibitor control (NEK2) | % binding compared to no inhibitor control (TYRO3) | % binding compared to no inhibitor control (CDC2L2) | % binding compared to no inhibitor control [1] | further results
1 | COc1ccccc1Nc1nc(-c2ccc(OC)c(OC)c2)cc2nccn12 [BAY derivative 6] | 100% | 95% | 100% | 100% | 100% | 100% | 100% | 100% | 86% | 100% | 100% | 98% | 83% | 100% | 100% | 100% | 88% | 67% | 100% | 100% | % binding compared to no inhibitor control (CSNK1D): 100%; % binding compared to no inhibitor control (EPHB2): 99%; % binding compared to no inhibitor control (MRCKB): 100%; % binding compared to no inhibitor control (DYRK1B): 57%; % binding compared to no inhibitor control (CDKL2): 100%; % binding compared to no inhibitor control (FLT3(ITD)): 82%; % binding compared to no inhibitor control (MUSK): 100%; % binding compared to no inhibitor control (CAMKK2): 100%; % binding compared to no inhibitor control (BTK): 60%; % binding compared to no inhibitor control (RIOK1): 95%; % binding compared to no inhibitor control (PFTAIRE2): 100%; % binding compared to no inhibitor control (SRPK1): 75%; % binding compared to no inhibitor control (BRAF(V600E)): 100%; % binding compared to no inhibitor control (CDKL5): 100%; % binding compared to no inhibitor control [2]: 48%; % binding compared to no inhibitor control (FER): 100%; % binding compared to no inhibitor control (ROCK2): 96%; % binding compared to no inhibitor control [3]: 100%; % binding compared to no inhibitor control (MARK2): 65%
2 | COc1ccc(-c2cc3nccn3c(Nc3ncccc3C(N)=O)n2)cc1OC.Cl.Cl [BAY61-3606, 2-[7-(3,4-dimethoxyphenyl)-imidazo [1,2-c]pyrimidin-5-ylamino] nicotinamide dihydrochloride, reference compound] | 73% | 36% | 54% | 100% | 31% | 97% | 92% | 100% | 94% | 96% | 96% | 29% | 94% | 68% | 92% | 77% | 77% | 94% | 100% | 50% | % binding compared to no inhibitor control (CSNK1D): 74%; % binding compared to no inhibitor control (EPHB2): 100%; % binding compared to no inhibitor control (MRCKB): 99%; % binding compared to no inhibitor control (DYRK1B): 81%; % binding compared to no inhibitor control (CDKL2): 78%; % binding compared to no inhibitor control (FLT3(ITD)): 2.1%; % binding compared to no inhibitor control (MUSK): 76%; % binding compared to no inhibitor control (CAMKK2): 51%; % binding compared to no inhibitor control (BTK): 50%; % binding compared to no inhibitor control (RIOK1): 31%; % binding compared to no inhibitor control (PFTAIRE2): 85%; % binding compared to no inhibitor control (SRPK1): 88%; % binding compared to no inhibitor control (BRAF(V600E)): 84%; % binding compared to no inhibitor control (CDKL5): 60%; % binding compared to no inhibitor control [2]: 71%; % binding compared to no inhibitor control (FER): 69%; % binding compared to no inhibitor control (ROCK2): 13%; % inhibition ATP binding (ROCK2; ROCK2, KINOMEscan, 1 μM): 87%; % binding compared to no inhibitor control [3]: 100%; % binding compared to no inhibitor control (MARK2): 63%
